Results: article PMC10746112, “Synthesis and Pro-Apoptotic Effects of Nitrovinylanthracenes and Related Compounds in Chronic Lymphocytic Leukaemia (CLL) and Burkitt’s Lymphoma (BL)” (Molecules, 2023)

Legend:
[1] = viability of peripheral blood mononuclear cells; assay type: cell-based, human; settings: human, healthy donor PBMCs
Method: (§1) The nitrostyrene 11h was evaluated for its cytotoxic effect on healthy donor peripheral blood mononuclear cells (PBMCs) to determine the selective toxicity of compounds containing the nitrostyrene pharmacophore on malignant BL cell lines over normal blood cells. Compound 11h was evaluated at 1 μM and 10 μM concentrations over a 24 h treatment time (Supplementary Information, Table S8).
(§2) Cells were seeded at a density of 2.5 × 10^4 cells/well (MCF-7, MDA-MB-231 cells), 1 × 10^4 cells/well (HL-60 cells), 1–5 × 10^4 cells per well (BL MUTU-I, DG-75 cells) and 2 × 10^5 cells/well [HG-3, PGA-1 (CLL cells)], Ramos, BJAB (BL cells) (200 μL per well), in 96-well plates. Cells were treated with the desired drug concentration for the appropriate time for each cell type, and the samples were incubated as required. alamarBlue (20 μL) was then added to each well and the samples further incubated in the dark at 37 °C for 4 h. Wells containing only reagent and cell culture medium in the absence of cells were used as blank controls. Ethanol was used as a vehicle, and cells were treated with 1% ethanol (v/v) in all experiments. The 96-well plates were analysed on a fluorescence plate reader (SpectraMax Gemini, Molecular Devices) (emission and excitement wavelengths of 590 nm and 544 nm, respectively), and the fluorescence was recorded. The decrease in cell viability was then calculated with reference to the vehicle samples (100% viability). EMEM medium with the addition of alamarBlue was used as a blank. Vehicle-treated cells were considered to be 100% viable, and the viabilities of each compound was calculated accordingly. […] All biochemical assays were performed in triplicate on at least three independent occasions, and the mean values were determined.
(§3) Peripheral blood was obtained from healthy donors (n = 2) after informed consent was received. The blood was then placed into a 50 mL falcon tube and diluted with an equal volume of phosphate-buffered saline (PBS). PBMCs were isolated using density gradient centrifugation using LymphoPrep as described previously Approval for this study was obtained from the School of Pharmacy and Pharmaceutical Sciences Trinity College Dublin Research Ethics Committee (2020-06-01-MS).

[2] = tested on: peripheral blood mononuclear cells (PBMCs); assay: viability of peripheral blood mononuclear cells; assay type: cell-based, human; settings: 24 h, healthy donor PBMCs
Method: as §1, §2, §3

[3] = tested on: DG-75 cells; set-up: method as in earlier work; settings: nitrostyrenes and taxol, MTT assay, reported data; cited from earlier work
[4] = tested on: HeLa cervical cancer cells; assay: alamarBlue cell viability assay; settings: Homo sapiens, 24 h
[5] = tested on: MCF-7 human breast cancer cells; assay: alamarBlue cell viability assay; settings: MCF7, 72 h
[6] = tested on: HL-60 promyelocytic leukaemia cells; assay: alamarBlue cell viability assay; settings: Homo sapiens, HL-60, 24 h

In the case of `C/C(=C\c1cccc(Cl)c1)[N+](=O)[O-]` [Compound 11h], the viability at 24 h, 1 µM ([1]; 1 µM) is reported as 74%, the viability at 24 h, 10 µM ([1]; 10 µM) is reported as 34.1% and the PBMCs % viability ([2]; 1 µM) is reported as 73.66±3.725%. For the same molecule, the PBMCs % viability ([2]; 10 µM) was 34.08±9.587%, the IC50 [3] was 2.25 µM and the viability at 1 µM ([4]; read-out: % Viable Cells Remaining HeLa 24 h 1 µM) was 90.6%. For the same molecule, the viability at 10 µM ([4]; read-out: % Viable Cells Remaining HeLa 24 h 10 µM) was 23.2%, the viability at 1 µM ([5]; read-out: % Viable Cells Remaining MCF-7 72 h 1 µM) was 94.3% and the viability at 10 µM ([5]; read-out: % Viable Cells Remaining MCF-7 72 h 10 µM) was 29.7%. For the same molecule, the viability at 1 µM ([6]; read-out: % Viable Cells Remaining HL60 24 h 1 µM) was 78.2% and the viability at 10 µM ([6]; read-out: % Viable Cells Remaining HL60 24 h 10 µM) was 6.8%.
